Converted amounts (≈) assume the structure as drawn. The source made the active and inactive calls. The calls are words filed in the database; no cut-off is given here.
Columns and labels:
[1] = Inhibition of alpha glucosidase (unknown origin) preincubated for 15 mins followed by p-nitrophenyl-alpha-D-glucopyranoside addition measured after 30 mins by spectrophotometric analysis; set-up: species or system Homo sapiens
Rattus norvegicus [2] = assay: Hypoglycemic activity in diabetic rat model assessed as blood glucose level at 360 mg/kg, ig administered for 12 days measured on day 6 of compound dosing by glucometer (reference value: 21.95 +/- 2.83 mmol/l); format: functional
Rattus norvegicus [3] = assay: Hypoglycemic activity in diabetic rat model assessed as decrease in blood glucose level at 360 mg/kg, ig administered for 12 days measured on third day of compound dosing by glucometer relative to control; format: functional; settings: po, 288 h
[4] = Cytotoxicity against human HCT116 cells after 72 hrs by MTT assay; format: functional, cell-based; settings: HCT-116, 72 h
Rattus norvegicus [5] = assay: Hypoglycemic activity in diabetic rat model assessed as blood glucose level at 360 mg/kg, ig administered for 12 days measured on day 9 of compound dosing by glucometer (reference value: 21.95 +/- 2.83 mmol/l); format: functional
[6] = Cytotoxicity against human BCG823 cells after 72 hrs by MTT assay; format: functional, cell-based; settings: BCG823, 72 h
NCI-H1650 = assay: Cytotoxicity against human NCI-H1650 cells after 72 hrs by MTT assay; format: functional, cell-based; settings: NCI-H1650, 72 h
[7] = Inhibition of alpha glucosidase (unknown origin) at 100 uM preincubated for 15 mins followed by p-nitrophenyl-alpha-D-glucopyranoside addition measured after 30 mins by spectrophotometric analysis; settings: Homo sapiens
Rattus norvegicus [8] = assay: Hypoglycemic activity in diabetic rat model assessed as blood glucose level at 360 mg/kg, ig administered for 12 days measured on day 12 by glucometer (reference value: 21.95 +/- 2.83 mmol/l); format: functional
Rattus norvegicus [9] = assay: Hypoglycemic activity in diabetic rat model assessed as decrease in blood glucose level at 100 mg/kg, ig administered for 12 days measured on ninth day of compound dosing by glucometer relative to control; format: functional; settings: po, 288 h
Rattus norvegicus [10] = assay: Hypoglycemic activity in diabetic rat model assessed as decrease in blood glucose level at 100 mg/kg, ig administered for 12 days measured on third day of compound dosing by glucometer relative to control; format: functional; settings: po, 288 h
Rattus norvegicus [11] = assay: Hypoglycemic activity in diabetic rat model assessed as decrease in blood glucose level at 100 mg/kg, ig administered for 12 days measured on twelfth day by glucometer relative to control; format: functional; settings: po, 288 h
Rattus norvegicus [12] = assay: Hypoglycemic activity in diabetic rat model assessed as decrease in blood glucose level at 100 mg/kg, ig administered for 12 days measured on sixth day of compound dosing by glucometer relative to control; format: functional; settings: po, 288 h
Rattus norvegicus [13] = assay: Hypoglycemic activity in diabetic rat model assessed as decrease in blood glucose level at 360 mg/kg, ig administered for 12 days measured on sixth day of compound dosing by glucometer relative to control; format: functional; settings: po, 288 h
Rattus norvegicus [14] = assay: Hypoglycemic activity in diabetic rat model assessed as decrease in blood glucose level at 360 mg/kg, ig administered for 12 days measured on twelfth day by glucometer relative to control; format: functional; settings: po, 288 h
Rattus norvegicus [15] = assay: Hypoglycemic activity in diabetic rat model assessed as decrease in blood glucose level at 360 mg/kg, ig administered for 12 days measured on ninth day of compound dosing by glucometer relative to control; format: functional; settings: po, 288 h
[16] = Noncompetitive inhibition of alpha glucosidase (unknown origin) preincubated for 15 mins followed by p-nitrophenyl-alpha-D-glucopyranoside addition measured after 30 mins by Lineweaver-Burk plot analysis; set-up: species or system Homo sapiens
Rattus norvegicus [17] = assay: Hypoglycemic activity in diabetic rat model assessed as decrease in blood glucose level at 20 mg/kg, ig administered for 12 days measured on ninth day of compound dosing by glucometer relative to control; format: functional; settings: po, 288 h
Rattus norvegicus [18] = assay: Hypoglycemic activity in diabetic rat model assessed as decrease in blood glucose level at 20 mg/kg, ig administered for 12 days measured on third day of compound dosing by glucometer relative to control; format: functional; settings: po, 288 h
Rattus norvegicus [19] = assay: Hypoglycemic activity in diabetic rat model assessed as decrease in blood glucose level at 20 mg/kg, ig administered for 12 days measured on sixth day of compound dosing by glucometer relative to control; format: functional; settings: po, 288 h
Rattus norvegicus [20] = assay: Hypoglycemic activity in diabetic rat model assessed as decrease in blood glucose level at 20 mg/kg, ig administered for 12 days measured on twelfth day by glucometer relative to control; format: functional; settings: po, 288 h

| SMILES | IC50 [1] [µM] | IC50 [4] [µg/mL] | IC50 [6] [µg/mL] | IC50 (NCI-H1650) [µg/mL] | inhibition [7] | also measured |
| --- | --- | --- | --- | --- | --- | --- |
| COC(=O)C(CO)c1ccc(C)cc1 (configuration not stated) | > 200 | > 0.01 | > 0.01 | > 0.01 | 14.6% | Activity (Rattus norvegicus [2]): 21.66 mmol/L; inhibition in vivo at 360 mg/kg (Rattus norvegicus [3]): 7.86%; Activity (Rattus norvegicus [5]): 21.76 mmol/L; Activity (Rattus norvegicus [8]): 21.4 mmol/L |
| COC(=O)C(CO)c1ccc(OC)cc1 (configuration not stated) |  | > 0.01 | > 0.01 | > 0.01 | inactive |  |
| CCOC(=O)C(COC(=O)/C=C/c1ccc(OC)c(OC)c1)c1ccc(C(F)(F)F)cc1 (configuration not stated) | 191 | > 0.01 | > 0.01 | > 0.01 | 29.9% |  |
| COC(=O)C(/C=N/NC(N)=S)c1ccc(C)cc1 (configuration not stated) | 190 | > 0.01 | 0.00522 (≈ 0.0197 µM) | 0.00534 (≈ 0.0201 µM) | 20.8% |  |
| CCOC(=O)C(COC(=O)c1ccccc1)c1ccc(F)cc1 (configuration not stated) | > 200 | > 0.01 | > 0.01 | > 0.01 | 27.3% |  |
| COC(=O)C(/C=N/NC(N)=S)c1ccccc1 (configuration not stated) | > 200 | 0.00321 (≈ 0.0128 µM) | 0.00818 (≈ 0.0325 µM) | 0.00325 (≈ 0.0129 µM) | 19.8% |  |
| CN(C)C(=N)NC(=N)N [METFORMIN] |  |  |  |  |  | inhibition in vivo at 100 mg/kg (Rattus norvegicus [9]): 7.86%; inhibition in vivo at 100 mg/kg (Rattus norvegicus [10]): 7.86%; inhibition in vivo at 100 mg/kg (Rattus norvegicus [11]): 7.86%; inhibition in vivo at 100 mg/kg (Rattus norvegicus [12]): 7.86% |
| CCOC(=O)C(CO)c1ccc(F)cc1 (configuration not stated) | > 200 | > 0.01 | > 0.01 | > 0.01 | 19.2% |  |
| COC(=O)C(COC(=O)/C=C/c1ccc(OC)c(OC)c1)c1ccccc1 (configuration not stated) | > 200 | > 0.01 | > 0.01 | > 0.01 | 11.1% | inhibition in vivo at 360 mg/kg (Rattus norvegicus [13]): 7.86%; inhibition in vivo at 360 mg/kg (Rattus norvegicus [3]): 7.86%; Activity (Rattus norvegicus [5]): 20.44 mmol/L; Activity (Rattus norvegicus [8]): 20.76 mmol/L |
| CCOC(=O)C(/C=N/OC)c1ccc(C(F)(F)F)cc1 (configuration not stated) |  | > 0.01 | > 0.01 | > 0.01 | inactive |  |
| CCOC(=O)C(CO)c1ccc(C(F)(F)F)cc1 (configuration not stated) |  | > 0.01 | > 0.01 | > 0.01 | inactive |  |
| COC(=O)C(COC(=O)c1ccccc1OC(C)=O)c1ccccc1 (configuration not stated) | > 200 | > 0.01 | > 0.01 | > 0.01 | 13.7% |  |
| CCOC(=O)C(C=O)c1ccc(F)cc1 (configuration not stated) | 183 | > 0.01 | > 0.01 | > 0.01 | 20.4% |  |
| COC(=O)C(C=O)c1ccc(OC)cc1 (configuration not stated) | > 200 | > 0.01 | > 0.01 | > 0.01 | 18.4% |  |
| CCOC(=O)C(C=O)c1ccc(C(F)(F)F)cc1 (configuration not stated) |  | > 0.01 | > 0.01 | > 0.01 | inactive |  |
| CCOC(=O)C(COC(=O)/C=C/c1ccc(OC)c(OC)c1)c1ccc(F)cc1 (configuration not stated) | 83.8 | > 0.01 | > 0.01 | > 0.01 | 47.8% | inhibition in vivo at 360 mg/kg (Rattus norvegicus [13]): 7.86%; inhibition in vivo at 360 mg/kg (Rattus norvegicus [3]): 7.86%; inhibition in vivo at 360 mg/kg (Rattus norvegicus [14]): 19%; inhibition in vivo at 360 mg/kg (Rattus norvegicus [15]): 7.86% |
| CCOC(=O)C(COC(=O)c1ccccc1OC(C)=O)c1ccc(C(F)(F)F)cc1 (configuration not stated) | > 200 | > 0.01 | > 0.01 | > 0.01 | 14.1% |  |
| COC(=O)C(C=O)c1ccc(C)cc1 (configuration not stated) | 185 | > 0.01 | > 0.01 | > 0.01 | 29.3% |  |
| CCOC(=O)C(/C=N/NC(N)=S)c1ccc(F)cc1 (configuration not stated) | 46.8 | 0.00191 (≈ 0.00674 µM) | 0.00727 (≈ 0.0257 µM) | 0.00198 (≈ 0.00699 µM) | 65.3% | inhibition in vivo at 360 mg/kg (Rattus norvegicus [13]): 7.86%; inhibition in vivo at 360 mg/kg (Rattus norvegicus [3]): 10.3%; Ki [16]: 65.4 µM; inhibition in vivo at 360 mg/kg (Rattus norvegicus [14]): 18.1%; inhibition in vivo at 360 mg/kg (Rattus norvegicus [15]): 16.9% |
| CCOC(=O)C(COC(=O)c1ccccc1)c1ccc(C(F)(F)F)cc1 (configuration not stated) | > 200 | > 0.01 | > 0.01 | > 0.01 | 16.8% |  |
| COC(=O)C(C=O)c1ccccc1 (configuration not stated) | > 200 | > 0.01 | > 0.01 | > 0.01 | 15.3% |  |
| CCOC(=O)C(COC(=O)c1ccccc1OC(C)=O)c1ccc(F)cc1 (configuration not stated) | > 200 | > 0.01 | > 0.01 | > 0.01 | 15.8% |  |
| COC(=O)C(COC(=O)c1ccccc1)c1ccccc1 (configuration not stated) | > 200 | > 0.01 | > 0.01 | > 0.01 | 12.9% |  |
| CCC1=C(C)CN(C(=O)NCCc2ccc(S(=O)(=O)NC(=O)N[C@H]3CC[C@H](C)CC3)cc2)C1=O [GLIMEPIRIDE] |  |  |  |  |  | inhibition in vivo at 20 mg/kg (Rattus norvegicus [17]): 7.86%; inhibition in vivo at 20 mg/kg (Rattus norvegicus [18]): 7.86%; inhibition in vivo at 20 mg/kg (Rattus norvegicus [19]): 7.86%; inhibition in vivo at 20 mg/kg (Rattus norvegicus [20]): 7.86% |
| COC(=O)C(/C=N/NC(N)=S)c1ccc(OC)cc1 (configuration not stated) | > 200 | 0.0088 (≈ 0.0313 µM) | > 0.01 | 0.0025 (≈ 0.00889 µM) | 14.4% |  |
| COC(=O)C(CO)c1ccccc1 (configuration not stated) | 186 | > 0.01 | > 0.01 | > 0.01 | 28.7% |  |
| CCOC(=O)C(/C=N/NC(N)=S)c1ccc(C(F)(F)F)cc1 (configuration not stated) | 137 | 0.00367 (≈ 0.011 µM) | > 0.01 | 0.00805 (≈ 0.0241 µM) | 34% |  |
| CCOC(=O)C(/C=N/OC)c1ccc(F)cc1 (configuration not stated) |  | > 0.01 | > 0.01 | > 0.01 | inactive |  |
| OC[C@H]1NC[C@H](O)[C@@H](O)[C@@H]1O [DUVOGLUSTAT] | 109 |  |  |  | 52.5% |  |
